Patent US20080214529A1, “SATURATED FUSED [1,2-b]PYRIDAZINONE COMPOUNDS” (priority 2006, published 2008)
Structures can show the parent of a compound that is named as a salt.

tested on: not given; assay: not given; details: not given

| melting point [°C] | SMILES |
| --- | --- |
| 203.8 to 205.7 | CN1N(CCC(C)(C)C)C(=O)C(C2=NS(=O)(=O)c3cc(NS(C)(=O)=O)ccc3N2)=C(O)C12CCCC2 (as salt: trifluoroacetic acid salt) [Example 5, N-{3-[7-(3,3-Dimethyl-butyl)-10-hydroxy-6-methyl-8-oxo-6,7-diaza-spiro[4.5]dec-9-en-9-yl]-1,1-dioxo-1,4-dihydro-1λ^6-benzo[1,2,4]thiadiazin-7-yl}-methanesulfonamide] |

molecular target: NS5B polymerase (Hepatitis C virus genotype 1b, UniProt P26663); assay: biochemical; details: NS5B polymerase inhibition; 20 nM enzyme, 75 min at 28° C.
Experimental: Compounds were tested for HCV polymerase inhibition. Assays were performed in a 96-well streptavidin-coated FlashPlate using 20 nM enzyme, 0.5 μCi of [α-^33P]GTP, 0.6 μM GTP, and 250 nM 5′biotinylated oligo (rG13)/poly rC in 20 mM Tris-HCl, pH 7.5, 5 mM MgCl2, 5 mM dithiothreitol, 0.1 g/L bovine serum albumin, and 100 U/mL RNAse inhibitor. The reaction was stopped by aspiration after 75 min at 28° C. and the plate was washed several times. After washing and drying the plate, incorporated radioactivity was counted using a Microbeta scintillation counter. IC50 values were calculated relative to the uninhibited control and inhibition data were fitted to a 4-parameter IC50 equation.

Sequence of NS5B polymerase (P26663 2420-3010): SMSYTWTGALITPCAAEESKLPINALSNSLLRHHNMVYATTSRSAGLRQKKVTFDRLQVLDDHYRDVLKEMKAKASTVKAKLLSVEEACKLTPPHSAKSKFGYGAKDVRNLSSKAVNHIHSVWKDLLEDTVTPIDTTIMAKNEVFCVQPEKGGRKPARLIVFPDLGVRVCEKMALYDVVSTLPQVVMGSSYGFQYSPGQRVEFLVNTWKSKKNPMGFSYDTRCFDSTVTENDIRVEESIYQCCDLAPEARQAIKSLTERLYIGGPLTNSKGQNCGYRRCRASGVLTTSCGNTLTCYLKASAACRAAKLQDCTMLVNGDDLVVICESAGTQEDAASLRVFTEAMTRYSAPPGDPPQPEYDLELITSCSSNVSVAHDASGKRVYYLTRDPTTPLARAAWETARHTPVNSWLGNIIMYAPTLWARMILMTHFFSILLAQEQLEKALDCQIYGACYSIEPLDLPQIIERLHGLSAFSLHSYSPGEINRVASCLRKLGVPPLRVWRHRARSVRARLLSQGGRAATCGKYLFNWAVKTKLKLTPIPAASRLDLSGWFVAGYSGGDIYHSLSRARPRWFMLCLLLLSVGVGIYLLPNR

| IC50 [nM] | SMILES |
| --- | --- |
| < 20 | CC(C)CCN1C(=O)C(C2=NS(=O)(=O)c3cc(NS(C)(=O)=O)ccc3N2)=C(O)C2CCCN21 (stereo not drawn) [Example 6, N-{3-[4-Hydroxy-1-(3-methyl-butyl)-2-oxo-1,2,4a,5,6,7-hexahydro-pyrrolo[1,2-b]pyridazin-3-yl]-1,1-dioxo-1,4-dihydro-1λ^6-benzo[1,2,4]thiadiazin-7-yl}-methanesulfonamide] |
| 200 to 3000 | CN1N(CCC(C)(C)C)C(=O)C(C2=NS(=O)(=O)c3cc(NS(C)(=O)=O)ccc3N2)=C(O)C12CCCC2 [Example 5, N-{3-[7-(3,3-Dimethyl-butyl)-10-hydroxy-6-methyl-8-oxo-6,7-diaza-spiro[4.5]dec-9-en-9-yl]-1,1-dioxo-1,4-dihydro-1λ^6-benzo[1,2,4]thiadiazin-7-yl}-methanesulfonamide] |
| 20 to 200 | CS(=O)(=O)Nc1ccc2c(c1)S(=O)(=O)N=C(C1=C(O)[C@@H]3C4CCC(CC4)N3N(Cc3ccc(F)cc3)C1=O)N2 [Example 11, (7S)-N-{3-[3-(4-Fluoro-benzyl)-6-hydroxy-4-oxo-2,3-diaza-tricyclo[6.2.2.0^2,7]dodec-5-en-5-yl]-1,1-dioxo-1,4-dihydro-1λ^6-benzo[1,2,4]thiadiazin-7-yl}-methanesulfonamide] |
| 20 to 200 | CS(=O)(=O)Nc1ccc2c(c1)S(=O)(=O)N=C(C1=C(O)[C@]34C[C@H]3CCN4N(Cc3ccc(F)cc3)C1=O)N2 [Example 12, (1aR,7aS)-N-{3-[4-(4-Fluoro-benzyl)-7-hydroxy-5-oxo-1,1a,2,3,4,5-hexahydro-3a,4-diaza-cyclopropa[c]inden-6-yl]-1,1-dioxo-1,4-dihydro-1λ^6-benzo[1,2,4]thiadiazin-7-yl}-methanesulfonamide] |
| < 20 | CS(=O)(=O)Nc1ccc2c(c1)S(=O)(=O)N=C(C1=C(O)C3CCCN3N(Cc3ccc(F)cc3)C1=O)N2 (stereo not drawn) [Example 7, N-{3-[1-(4-Fluoro-benzyl)-4-hydroxy-2-oxo-1,2,4a,5,6,7-hexahydro-pyrrolo[1,2-b]pyridazin-3-yl]-1,1-dioxo-1,4-dihydro-1λ^6-benzo[1,2,4]thiadiazin-7-yl}-methanesulfonamide] |

Second part, the compound before the results:

| SMILES | IC50 [nM] |
| --- | --- |
| CS(=O)(=O)Nc1ccc2c(c1)S(=O)(=O)N=C(C1=C(O)C3CC4CCCC4N3N(C3CCCCC3)C1=O)N2 (single isomer, unassigned) [10 Isomer 1] | 200 to 3000 |
| CC(C)(C)CCN1C(=O)C(C2=NS(=O)(=O)c3cc(NS(C)(=O)=O)ccc3N2)=C(O)C2CCCN21 (stereo not drawn) [Example 3, N-{3-[1-(3,3-Dimethyl-butyl)-4-hydroxy-2-oxo-1,2,4a,5,6,7-hexahydro-pyrrolo[1,2-b]pyridazin-3-yl]-1,1-dioxo-1,4-dihydro-1λ^6-benzo[1,2,4]thiadiazin-7-yl}-methanesulfonamide] | < 20 |
| CS(=O)(=O)Nc1ccc2c(c1)S(=O)(=O)N=C(C1=C(O)C3C4CCC(C4)N3N(Cc3ccc(F)cc3)C1=O)N2 (stereo not drawn) [Example 9, N-{3-[3-(4-Fluoro-benzyl)-6-hydroxy-4-oxo-2,3-diaza-tricyclo[6.2.1.0^2,7]undec-5-en-5-yl]-1,1-dioxo-1,4-dihydro-1λ^6-benzo[1,2,4]thiadiazin-7-yl}-methanesulfonamide] | < 20 |
| CC(C)(C)CCN1C(=O)C(C2=NS(=O)(=O)c3cc(NS(C)(=O)=O)ccc3N2)=C(O)C2CCCCN21 (stereo not drawn) [Example 2, N-{3-[1-(3,3-Dimethyl-butyl)-4-hydroxy-2-oxo-2,4a,5,6,7,8-hexahydro-1H-pyrido[1,2-b]pyridazin-3-yl]-1,1-dioxo-1,4-dihydro-1λ^6-benzo[1,2,4]thiadiazin-7-yl}-methanesulfonamide] | 20 to 200 |
| CC(C)(C)CCN1C(=O)C(C2=NS(=O)(=O)c3cc(NS(C)(=O)=O)ccc3N2)=C(O)C2(C)CCCN12 (stereo not drawn) [Example 4, N-{3-[1-(3,3-Dimethyl-butyl)-4-hydroxy-4a-methyl-2-oxo-1,2,4a,5,6,7-hexahydro-pyrrolo[1,2-b]pyridazin-3-yl]-1,1-dioxo-1,4-dihydro-1λ^6-benzo[1,2,4]thiadiazin-7-yl}-methanesulfonamide] | 20 to 200 |
| CS(=O)(=O)Nc1ccc2c(c1)S(=O)(=O)N=C(C1=C(O)C3CCCCN3N(Cc3ccc(F)cc3)C1=O)N2 (stereo not drawn) [Example 1, N-{3-[1-(4-Fluoro-benzyl)-4-hydroxy-2-oxo-2,4a,5,6,7,8-hexahydro-1H-pyrido[1,2-b]pyridazin-3-yl]-1,1-dioxo-1,4-dihydro-1λ^6-benzo[1,2,4]thiadiazin-7-yl}-methanesulfonamide] | < 20 |
